# Assays:
# [1] = system: Female New Zealand rabbits; experiment: Ischemia-induced ST segment elevation in anesthetized rabbits; type: in vivo, rabbit
# Method: This study was undertaken to determine the anti-ischemic effects of compounds of the present disclosure in an in vivo rabbit model.
# Female New Zealand rabbits (3.0-4.0 kg) were purchased from Western Oregon Rabbitry. Animals were housed on a 12-h light and dark cycle and received standard laboratory chow and water. All experiments were performed in accordance with the Guide for the Care and Use of Laboratory Animals published by The National Research Council and with the experimental protocol approved by the Institutional Animal Care Committee of Gilead Sciences, Inc.
# Rabbits were anesthetized with ketamine (35 mg/kg) and xylazine (5 mg/kg) intramuscular injection (im). A tracheotomy was performed and the trachea was intubated with an endotracheal tube. The animal was ventilated with room air supplemented with oxygen using a pressure control animal ventilator (Kent Scientific Corp., Torrington, Conn.) at a respiratory rate of 40 strokes/min and peak inspiration pressure of 10 mmH2O, which was adjusted to keep blood gases and pH within the physiological range (iSTAT clinic analyzer, Heska Corp.; Waukesha, Wis.). The left femoral artery was cannulated for the measurement of blood pressure (BP). Blood samples were also withdrawn from femoral artery. The right external jugular vein was cannulated for drug/vehicle administration. Needle electrodes were inserted subcutaneously into the limbs for recording of the surface electrocardiogram (ECG). The heart was exposed via an incision in the 4th intercostal space (4th and/or 5th ribs were cut for a clear surgical vision). The chest was opened and a pericardial cradle was formed using 4 retractors. A coronary artery occluder, comprised of a snare made of 5 cm PE-10 tubing with a 6-0 Prolene polypropylene suture in it, was placed loosely around the left anterior descending artery (LAD) at its origin. Two unipolar electrodes, made with teflon coated silver wire attached to a small patch of filter paper, were attached on the surface of the ischemic and normal regions of the left ventricle to record epicardial electrocardiogram. Reference electrodes were placed in the open incision of the neck. The body temperature of the animal was monitored via a rectal thermometer and maintained at 37-40° C. by adjusting the surface temperature of the surgical table. Regional ischemia (15 min) was induced by ligating the LAD followed by 15 min of reperfusion caused by releasing the ligation. The heart was excised at the end of the experiment and the LAD was re-ligated. The ischemic area was visualized by perfusing the heart with 1% Evans blue in saline and calculated as a percentage of total ventricular weight. Rabbits with ischemic area less than 10% or larger than 25% were excluded from the analysis. Animals were randomly assigned to vehicle and test compound groups. Test compounds was dissolved in 5% NMP, 30% PG, 45% PEG 400 and 20% de-ionized water (dH2O). Test compound was given as an iv bolus at 0.1, 0.2 and 0.4 mg/kg. After 30 min of dosing, the heart was subjected to 15 min of ischemia followed by 15 min of reperfusion.
# [2] = biological target: cardiac L-type Ca2+ channel (hCav1.2) (Homo sapiens, UniProt Q13936); experiment: L-type Ca2+ channel assay - ChanTest (PatchXpress, CHO cells); type: cell-based
# Excerpt: Selected compounds were screened for block of the cardiac L-type Ca^2+ channel (hCav1.2, encoded by the human CACNA1C gene and coexpressed with the beta 2 subunit, encoded by the human CACNB2 gene and alpha2delta1, encoded by the CACNA2D1 gene). The Ca^2+ channel is heterologously expressed in a CHO (Chinese Hamster Ovary) cell line. Cells are maintained following standard tissue culture procedures and stable channel expression is maintained with appropriate selection antibiotics in the culture medium. Cells are harvested for testing on the PatchXpress automated patch clamp (Model 7000A, Molecular Devices, Sunnyvale, Calif.) by washing twice with Hank's Balanced Salt Solution, treating the cells with trypsin and re-suspending cells in culture medium (4-6×10^6 cells in 20 mL). Cells in suspension are allowed to recover for 10 minutes in a tissue culture incubator set at 37° C. in a humidified 95% air, 5% CO2 atmosphere.
# The following solutions are used for electrophysiological recordings. The external solution contains (mM): 137 NaCl, 4 KCl, 1.8 CaCl2, 1 MgCl2, 10 Glucose, 10 HEPES (pH 7.4 with NaOH). The internal solution contains (mM): 130 Cs Aspartate, 5 MgCl2, 10 EGTA, 4 ATP, 0.5 GTP, 10 HEPES, (pH adjusted to 7.2 with N-methyl-D-glucamine).
# Vehicle is applied to naive cells (n≧2, where n=the number cells), for a 5-10 minute exposure interval. Each solution exchange is performed in quadruplicate. At the end of each experiment, a saturating concentration of nifedipine (10 μM) is added to block hCav1.2 current. Leak current is digitally subtracted from the total membrane current record.
# Test compound stock solutions are prepared by addition of dimethyl sulfoxide (DMSO) and stored frozen. Each test compound DMSO stock is sonicated (Model 2510/5510, Branson Ultrasonics, Danbury, Conn.), at ambient room temperature for at least 20 minutes to facilitate dissolution. Test compound concentrations are prepared fresh daily by diluting stock solutions into the standard extracellular physiological saline solution (see above). The maximum percent of DMSO added with compound is 0.1%. All test compound and control solutions are placed in a glass-lined 96-well compound plate before loading on PatchXpress.
# Two concentrations (1, 10 μM) of each test compound are applied at five (5) minute intervals via disposable polyethylene micropipette tips to naïve cells (n≧2, where n=the number cells/concentration). Each test compound concentration is added to the cell in quadruplicate. […]
# Onset and steady state block of hCav1.2 (α1C/β2/α2δ[…] channels is measured using a stimulus voltage pattern consisting of a depolarizing test pulse (duration, 200 ms; amplitude, 10 mV) at 10 s intervals from a −80 mV holding potential. Peak current is measured during a step to 10 mV.
# Chain of cardiac L-type Ca2+ channel (hCav1.2) (Q13936 whole entry): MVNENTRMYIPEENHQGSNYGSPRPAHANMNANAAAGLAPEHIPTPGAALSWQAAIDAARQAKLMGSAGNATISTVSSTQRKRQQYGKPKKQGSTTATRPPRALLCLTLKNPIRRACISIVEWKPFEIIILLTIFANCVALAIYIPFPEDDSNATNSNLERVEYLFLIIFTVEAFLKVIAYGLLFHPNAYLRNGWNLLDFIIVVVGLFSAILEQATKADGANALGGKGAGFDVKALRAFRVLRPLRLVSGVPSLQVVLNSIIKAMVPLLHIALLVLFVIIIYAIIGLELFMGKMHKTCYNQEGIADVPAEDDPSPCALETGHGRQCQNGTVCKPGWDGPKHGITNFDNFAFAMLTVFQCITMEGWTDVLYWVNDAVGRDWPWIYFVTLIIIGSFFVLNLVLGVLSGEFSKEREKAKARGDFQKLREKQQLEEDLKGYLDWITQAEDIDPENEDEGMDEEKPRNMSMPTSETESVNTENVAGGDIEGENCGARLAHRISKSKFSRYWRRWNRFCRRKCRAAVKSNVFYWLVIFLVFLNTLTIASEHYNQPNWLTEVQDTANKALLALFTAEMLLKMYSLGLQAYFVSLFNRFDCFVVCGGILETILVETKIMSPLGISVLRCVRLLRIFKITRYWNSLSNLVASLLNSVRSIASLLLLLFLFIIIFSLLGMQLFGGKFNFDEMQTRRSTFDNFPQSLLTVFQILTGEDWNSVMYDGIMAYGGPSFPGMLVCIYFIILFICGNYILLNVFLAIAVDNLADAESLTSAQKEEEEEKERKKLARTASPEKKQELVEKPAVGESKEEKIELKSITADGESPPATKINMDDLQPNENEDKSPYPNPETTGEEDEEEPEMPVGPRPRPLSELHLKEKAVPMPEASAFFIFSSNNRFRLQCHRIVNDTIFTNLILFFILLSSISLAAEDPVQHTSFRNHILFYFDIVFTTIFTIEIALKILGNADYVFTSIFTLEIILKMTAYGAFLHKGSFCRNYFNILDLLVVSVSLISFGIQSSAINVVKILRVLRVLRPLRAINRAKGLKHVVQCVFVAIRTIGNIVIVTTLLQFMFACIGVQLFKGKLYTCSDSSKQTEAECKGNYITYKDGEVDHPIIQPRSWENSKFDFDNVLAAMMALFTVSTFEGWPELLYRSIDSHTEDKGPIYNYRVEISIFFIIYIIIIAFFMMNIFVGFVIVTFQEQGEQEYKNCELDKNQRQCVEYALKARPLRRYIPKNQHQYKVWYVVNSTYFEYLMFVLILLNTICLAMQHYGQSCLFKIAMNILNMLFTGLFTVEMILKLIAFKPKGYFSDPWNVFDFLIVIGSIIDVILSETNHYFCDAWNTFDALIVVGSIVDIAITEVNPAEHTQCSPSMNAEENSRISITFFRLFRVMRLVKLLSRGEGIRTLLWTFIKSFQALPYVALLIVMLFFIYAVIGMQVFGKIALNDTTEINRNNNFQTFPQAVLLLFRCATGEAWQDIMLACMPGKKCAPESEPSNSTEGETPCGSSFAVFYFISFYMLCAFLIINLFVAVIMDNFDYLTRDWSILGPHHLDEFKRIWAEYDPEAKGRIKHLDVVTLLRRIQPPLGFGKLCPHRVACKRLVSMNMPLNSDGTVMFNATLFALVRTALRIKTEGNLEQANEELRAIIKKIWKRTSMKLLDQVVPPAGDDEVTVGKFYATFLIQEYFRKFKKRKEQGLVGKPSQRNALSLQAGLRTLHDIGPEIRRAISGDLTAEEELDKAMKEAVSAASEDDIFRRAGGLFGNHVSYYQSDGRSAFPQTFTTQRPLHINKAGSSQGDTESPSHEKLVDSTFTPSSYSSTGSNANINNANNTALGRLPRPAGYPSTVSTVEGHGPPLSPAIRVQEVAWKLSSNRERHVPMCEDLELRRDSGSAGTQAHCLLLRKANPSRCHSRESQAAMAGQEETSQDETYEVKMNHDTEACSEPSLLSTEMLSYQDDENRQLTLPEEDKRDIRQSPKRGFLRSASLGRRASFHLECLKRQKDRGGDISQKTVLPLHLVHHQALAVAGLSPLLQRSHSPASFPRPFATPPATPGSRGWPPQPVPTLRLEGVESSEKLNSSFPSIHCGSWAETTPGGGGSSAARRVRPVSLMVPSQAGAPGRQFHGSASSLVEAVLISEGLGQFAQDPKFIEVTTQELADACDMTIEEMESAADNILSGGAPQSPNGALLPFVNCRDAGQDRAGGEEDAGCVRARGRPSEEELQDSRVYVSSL
# Chain of cardiac L-type Ca2+ channel (hCav1.2) (Q08289 whole entry partner): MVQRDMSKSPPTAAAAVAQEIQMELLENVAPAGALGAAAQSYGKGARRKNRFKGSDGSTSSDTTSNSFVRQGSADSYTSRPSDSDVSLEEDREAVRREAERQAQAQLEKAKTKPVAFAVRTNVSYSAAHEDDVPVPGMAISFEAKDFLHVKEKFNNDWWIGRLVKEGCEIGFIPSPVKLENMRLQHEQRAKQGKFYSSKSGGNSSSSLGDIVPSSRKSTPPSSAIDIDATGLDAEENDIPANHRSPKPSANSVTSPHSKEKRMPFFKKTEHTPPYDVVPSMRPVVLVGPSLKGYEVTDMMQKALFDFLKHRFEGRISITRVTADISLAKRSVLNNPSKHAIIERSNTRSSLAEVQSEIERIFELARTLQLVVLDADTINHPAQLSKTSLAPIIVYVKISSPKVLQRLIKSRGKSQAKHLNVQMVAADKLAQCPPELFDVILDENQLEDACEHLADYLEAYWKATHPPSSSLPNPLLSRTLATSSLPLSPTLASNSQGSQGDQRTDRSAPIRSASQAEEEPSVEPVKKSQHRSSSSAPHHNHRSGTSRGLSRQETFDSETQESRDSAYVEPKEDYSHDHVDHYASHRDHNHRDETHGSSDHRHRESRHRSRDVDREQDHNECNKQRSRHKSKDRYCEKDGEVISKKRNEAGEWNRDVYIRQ
# Chain of cardiac L-type Ca2+ channel (hCav1.2) (P54289 25-956 partner limits assumed): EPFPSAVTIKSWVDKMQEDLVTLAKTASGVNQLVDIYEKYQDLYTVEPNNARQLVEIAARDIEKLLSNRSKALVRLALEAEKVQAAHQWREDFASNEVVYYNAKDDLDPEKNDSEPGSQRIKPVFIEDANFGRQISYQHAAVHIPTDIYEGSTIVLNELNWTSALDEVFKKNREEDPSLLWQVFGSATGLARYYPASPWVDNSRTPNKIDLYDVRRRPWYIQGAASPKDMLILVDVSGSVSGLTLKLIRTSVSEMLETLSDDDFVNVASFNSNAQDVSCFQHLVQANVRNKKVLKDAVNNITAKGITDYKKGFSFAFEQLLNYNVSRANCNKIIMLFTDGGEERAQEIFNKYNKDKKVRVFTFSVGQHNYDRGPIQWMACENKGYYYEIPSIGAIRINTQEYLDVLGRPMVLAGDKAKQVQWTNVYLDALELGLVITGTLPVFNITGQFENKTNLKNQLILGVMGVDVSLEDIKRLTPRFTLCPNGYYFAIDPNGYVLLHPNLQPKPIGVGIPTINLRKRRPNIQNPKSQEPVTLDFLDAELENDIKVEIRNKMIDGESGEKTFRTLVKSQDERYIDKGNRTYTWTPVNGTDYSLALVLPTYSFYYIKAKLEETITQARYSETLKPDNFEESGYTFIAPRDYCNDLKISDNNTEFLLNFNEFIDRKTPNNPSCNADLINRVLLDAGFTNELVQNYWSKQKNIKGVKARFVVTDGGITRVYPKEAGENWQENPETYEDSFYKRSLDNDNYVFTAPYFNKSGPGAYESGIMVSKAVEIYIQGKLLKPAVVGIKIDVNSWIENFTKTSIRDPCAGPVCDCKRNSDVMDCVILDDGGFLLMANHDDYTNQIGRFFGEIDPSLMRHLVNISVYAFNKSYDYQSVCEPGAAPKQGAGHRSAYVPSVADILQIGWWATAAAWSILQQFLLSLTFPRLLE
# Chain of cardiac L-type Ca2+ channel (hCav1.2) (P54289 957-1103 partner limits assumed): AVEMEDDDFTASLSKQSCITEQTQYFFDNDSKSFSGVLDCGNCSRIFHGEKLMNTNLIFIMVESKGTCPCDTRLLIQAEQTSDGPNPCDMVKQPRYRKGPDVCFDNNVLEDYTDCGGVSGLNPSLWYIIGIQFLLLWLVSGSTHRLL
structure (smiles),measurement,setting,value
"O=C1c2cc(-c3ccc(OC(F)(F)F)cc3)ccc2OCCN1Cc1ncccn1 [II-73, 4-(pyrimidin-2-ylmethyl)-7-(4-(trifluoromethoxy)phenyl)-3,4-dihydrobenzo[f][1,4]oxazepin-5(2H)-one]",area under curve (AUC) for the ST segment height reduced (vs. control),"[1]; 0.5 μM plasma concentration, iv bolus, 15 min ischemia",93%
same,"effect on blood pressure (BP), heart rate (HR) and ECG intervals prior to the ischemia",[1]; at the plasma concentration levels studied,no significant effect
same,ischemia-induced ST elevation,[1]; iv bolus 30 min before 15 min ischemia,dose-dependently prevented
same,blocked the hCav1.2 late current,[2]; 1 μM concentration,14%
same,blocked the hCav1.2 peak current,[2]; 1 μM concentration,32%
same,blocked the hCav1.2 late current,[2]; 10 μM concentration,47%
same,blocked the hCav1.2 peak current,[2]; 10 μM concentration,79%

# From patent US9676760B2, “Fused heterocyclic compounds as ion channel modulators” (Gilead Sciences, Inc., priority 2011, dated 2017)
